Legend:
OleD [1] = molecular target: T1, OleD (Streptomyces antibioticus, UniProt Q53685, P55A/R82V/R83E/T84P); test: qPCR DLEnCA, cell-free transcription/translation-derived OleD; type: biochemical; conditions: OleD DNA 5 nM, UDP-Glc 2 μM, probe 0.2 nM; for recovery of intact probe DNA: chemical 1 mM, low recovery = substrate glucosylated; for significant loss in protection of the DNA probe: flavone 1 mM
T1 construct: made in house; host or cells: PURExpress In Vitro Protein Synthesis Kit (NEB E6800L), cell-free transcription/translation, linear DNA with T7 promoter
T1 sequence (Q53685 other isoform, or with tags, fused parts or gaps P55A/R82V/R83E/T84P): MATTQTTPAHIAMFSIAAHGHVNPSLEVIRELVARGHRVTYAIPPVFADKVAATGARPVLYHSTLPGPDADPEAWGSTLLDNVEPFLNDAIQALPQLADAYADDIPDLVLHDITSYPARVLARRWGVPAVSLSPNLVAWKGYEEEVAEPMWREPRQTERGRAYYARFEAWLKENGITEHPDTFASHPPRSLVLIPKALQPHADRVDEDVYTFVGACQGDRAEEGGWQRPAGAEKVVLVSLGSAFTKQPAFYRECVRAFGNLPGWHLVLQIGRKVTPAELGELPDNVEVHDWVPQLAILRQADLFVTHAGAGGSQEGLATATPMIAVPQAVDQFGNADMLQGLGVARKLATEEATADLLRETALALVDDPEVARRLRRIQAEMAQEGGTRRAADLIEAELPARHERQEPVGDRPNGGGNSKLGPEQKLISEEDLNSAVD
Description: (§1) FIG. 4A-FIG. 4D. qPCR DLEnCA and substrate specificity studies. A. Chemicals used as substrates in subsequent assays: (i) known substrates of OleD; (ii) flavone library; (iii) known substrates of GT05 (UGT72B1 (Q9M156)) and GT06 (UGT89B1 (AT1 G73880)). B. DNA encoding OleD (5 nM) was incubated in a cell-free transcription/translation system for 3 hours at 37° C., followed by the addition of chemical (1 mM) and UDP-Glc (2 μM). After a subsequent incubation of 3 hours, TbGT and probe (0.2 nM) were added. After probe purification and MfeI digestion, probe integrity was identified using qPCR. Percent recovery of probe is reported (n=8; error bars=standard error). C. DNA encoding OleD (5 nM) was incubated for 3 hours at 37° C. in a cell-free transcription/translation system, followed by the addition of flavone (1 mM) and UDP-Glc (2 μM). After a subsequent incubation of 3 hours, TbGT and probe (0.2 nM) were added. After probe purification and MfeI addition, probe integrity was identified using qPCR. Percent recovery of probe is reported (n=8; error bars=standard error). D. DNA encoding OleD, GT05, or GT06 (5 nM) were incubated for 3 hours at 37° C. in a cell-free transcription/translation system, followed by the addition of chemical (1 mM) and UDP-Glc (2 μM). After a subsequent incubation of 3 hours, TbGT and probe (0.2 nM) were added. After probe purification and MfeI digestion, probe integrity was identified using qPCR. Percent recovery of probe is reported as a heat map (n=8) (specific recovery figures and percent error can be found in FIG. 16). *=p<0.05 vs. no chemical control.
PCR tubes were used for most reactions. All incubations were performed at 37° C. Assays were initiated upon the addition of linear DNA (5 nM final concentration) to 4 μl PURExpress Solution A and 3 μl PURExpress Solution B. Samples were incubated at 37° C. for 3 hours prior to addition of UDP-Glucose and chemical (1 mM final concentration) in DMSO. Samples were incubated for an additional 3 hours prior to addition of 1 unit T4 Phage β-glucosyltransferase containing 0.2 nM probe. Samples were incubated an additional 3 hours before DNA was purified using the Zymo DNA Clean and Concentrator Kit. Samples were digested overnight with MfeI prior to analysis. Concentration of intact DNA probe was identified using the iQ SYBR Green Supermix (1708880) with probe DNA as standards. qPCR was carried out on the Bio-Rad iQ5 Multicolor Real-Time PCR Detection System using primers P13 and P14 with the following temperatures; 94° C. 30 seconds followed by 40 cycles of 94° C. 10 seconds and 55° C. for 30 seconds. All results were compared to uncut probe DNA that had been carried through the process as negative controls (considered full recovery of probe).
The second DLEnCA workflow developed involved qPCR as a final readout (qPCR DLEnCA, FIG. 1—qPCR workflow). A linear fragment of DNA was modified to contain 5-hm-cytosines throughout. To determine a threshold for probe protection under conditions amenable to the qPCR DLEnCA workflow, UDP-Glc was titrated into mixtures of the cell-free transcription/translation system containing 5-hm-cytosine-modified DNA probe (0.2 nM probe DNA containing 0.1 μM modified 5-hm-cytosines) and TbGT. After digestion with the restriction enzyme MfeI, the amount of intact DNA probe was determined using qPCR (FIG. 3C). […] A threshold for protection was identified at a 20:1 molar ratio of UDP-Glc to total 5-hm-cytosine in probe DNA; this UDP-Glc amount was used as the starting concentration of UDP-Glc for all qPCR experiments. To test the feasibility of qPCR DLEnCA, OleD was again tested upon the substrate kaempferol (FIG. 3D), using DNA encoding a promoter and OleD as starting material. As expected, when all components of the assay were present, 27% of intact probe DNA was recovered. […]

OleD [2] = conditions: Williams 2007; Choi 2012; Yang 2005; cited from earlier work
OleD [3] = molecular target: T1, OleD; test: LCMS analysis of OleD-catalyzed glucosylation in cell-free reactions; type: biochemical; conditions: equal-molar chemical and UDP-glucose, PURExpress, 3 hours at 37° C.
Excerpt: Determination of glucosylation was accomplished by means of an LCMS system consisting of an Agilent Technologies 1200 series HPLC with an Agilent Technologies 6520 Accurate Mass qTOF LC/MS. An Eclipse Plus C18 (4.6 mm×100 mm i.d., 3.5-μm packing, Agilent Technologies) reverse-phase column with a guard Zorbax Eclipse Plus C18 column ([…], 5 μm packing, Agilent Technologies) was used for separating the samples. Water+0.1% Formic Acid and Acetonitrile+0.1% Formic Acid were used as mobile phases at a flow rate of 500 μl/min. The elution gradient water/acetonitrile ratio) was ramped as follows: 98:2 (v/v) (0-2 min), 98:2-5:95 (v/v) linearly (2-17 min), 5:95 (v/v) (17-27 min), and 5:95-98-2 (v/v) (27-28 min). Full scanning mode (50-750 m/z) was used for data acquisition in a positive-ion mode, and the operation parameters were as follows: ESI probe capillary voltage, +3.5 kV with a scan rate of 1.01 scans/second. The nebulizer gas flow rate was 7 L/min. During the analysis two references (121.0509 m/z (C5H4N4) and 922.0098 m/z (C18H18O6N3P3F24)) were continuously measured to allow constant mass correction.
Samples were prepared directly from cell-free reactions. Equal-molar amounts of chemical and UDP-glucose were incubated with DNA encoding the glucosyltransferase of interest or water in PURExpress for 3 hours at 37° C. […]

[4] = molecular target: T2, GT06 (UGT89B1 (AT1G73880)) (Arabidopsis thaliana, UniProt Q9C9B0); test: qPCR DLEnCA, cell-free transcription/translation-derived GT06; type: biochemical; conditions: GT06 DNA 5 nM, chemical 1 mM, UDP-Glc 2 μM, probe 0.2 nM; low recovery = substrate glucosylated
T2 sequence (Q9C9B0 1-473): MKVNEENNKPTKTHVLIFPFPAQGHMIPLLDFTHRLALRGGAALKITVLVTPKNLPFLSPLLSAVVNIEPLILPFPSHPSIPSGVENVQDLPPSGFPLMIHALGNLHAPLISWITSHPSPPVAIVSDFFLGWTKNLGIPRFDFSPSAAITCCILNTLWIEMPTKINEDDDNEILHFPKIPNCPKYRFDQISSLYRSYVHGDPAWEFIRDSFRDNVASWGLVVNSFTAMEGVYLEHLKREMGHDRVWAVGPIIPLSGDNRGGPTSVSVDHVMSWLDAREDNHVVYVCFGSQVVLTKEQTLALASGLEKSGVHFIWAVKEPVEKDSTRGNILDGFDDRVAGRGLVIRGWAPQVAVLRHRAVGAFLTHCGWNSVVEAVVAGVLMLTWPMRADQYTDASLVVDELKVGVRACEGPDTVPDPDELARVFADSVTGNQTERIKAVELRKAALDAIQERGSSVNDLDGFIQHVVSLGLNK
Description: as §1, with “After probe purification and MfeI digestion, probe integrity was identified using qPCR. Percent recovery of probe is reported as a heat map (n=8) (specific recovery figures and percent error can be found in FIG. 16). *=p<0.05 vs. no chemical control.” left out

GT05 (UGT72B1 (Q9M156)) = molecular target: T3, GT05 (UGT72B1 (Q9M156)) (Arabidopsis thaliana, UniProt Q9M156); test: qPCR DLEnCA, cell-free transcription/translation-derived GT05; type: biochemical; conditions: GT05 DNA 5 nM, chemical 1 mM, UDP-Glc 2 μM, probe 0.2 nM; low recovery = substrate glucosylated
T3 construct: made in house; host or cells: PURExpress In Vitro Protein Synthesis Kit (NEB E6800L), cell-free transcription/translation, linear DNA amplified from pET15b construct
T3 sequence (Q9M156 1-480): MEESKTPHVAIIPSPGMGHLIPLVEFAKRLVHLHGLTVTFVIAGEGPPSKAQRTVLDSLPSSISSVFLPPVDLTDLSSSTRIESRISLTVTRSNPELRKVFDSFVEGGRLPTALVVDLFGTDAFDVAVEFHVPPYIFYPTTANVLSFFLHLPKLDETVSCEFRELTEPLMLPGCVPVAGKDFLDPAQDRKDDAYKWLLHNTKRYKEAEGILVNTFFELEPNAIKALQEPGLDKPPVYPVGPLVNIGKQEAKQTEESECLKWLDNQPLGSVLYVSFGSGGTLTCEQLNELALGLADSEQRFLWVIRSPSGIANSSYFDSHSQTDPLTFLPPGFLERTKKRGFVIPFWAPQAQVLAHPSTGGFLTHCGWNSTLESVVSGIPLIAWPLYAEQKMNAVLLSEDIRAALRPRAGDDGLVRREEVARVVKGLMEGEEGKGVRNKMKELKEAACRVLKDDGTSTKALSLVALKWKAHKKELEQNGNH
Description: as §1
PCR tubes were used for most reactions. All incubations were performed at 37° C. Assays were initiated upon the addition of linear DNA (5 nM final concentration) to 4 μl PURExpress Solution A and 3 μl PURExpress Solution B. Samples were incubated at 37° C. for 3 hours prior to addition of UDP-Glucose and chemical (1 mM final concentration) in DMSO. Samples were incubated for an additional 3 hours prior to addition of 1 unit T4 Phage β-glucosyltransferase containing 0.2 nM probe. […]

SMILES | recovery of intact probe DNA (OleD [1]) | OleD substrate quality reported in previous studies (OleD [2]) | further results
O=c1c(O)c(-c2ccccc2)oc2ccccc12 [VI, 3-hydroxyflavone] | 42% | – | –
Cc1cc(=O)oc2cc(O)ccc12 [III, 4-methylumbelliferone] | 60% | slower rate or with less efficiency than with (I) | identification as OleD substrate by LCMS (OleD [3]): identified the chemicals as substrates
O=C(O)c1ccc(O)c(O)c1 [XII, 3,4-dihydroxybenzoic acid] | – | – | recovery of probe [4]: 30%; recovery of probe (GT05 (UGT72B1 (Q9M156))): 40%
O=C(O)c1cccc(O)c1 [X, 3-hydroxybenzoic acid] | – | – | recovery of probe (GT05 (UGT72B1 (Q9M156))): 33%
O=c1cc(-c2ccccc2)oc2cccc(O)c12 [VIII, 5-hydroxyflavone] | – | – | significant loss in protection of the DNA probe (OleD [1]): not the case
O=c1cc(-c2ccccc2)oc2cc(O)ccc12 [IX, 7-hydroxyflavone] | 39% | – | –
O=c1cc(-c2ccc(O)cc2)oc2ccccc12 [VII, 4-hydroxyflavone] | – | – | significant loss in protection of the DNA probe (OleD [1]): not the case
O=c1cc(-c2ccc(O)cc2)oc2cc(O)cc(O)c12 [II, apigenin] | 42% | slower rate or with less efficiency than with (I) | identification as OleD substrate by LCMS (OleD [3]): identified the chemicals as substrates
O=C(O)Cc1cc(=O)oc2cc(O)ccc12 [IV, 7-hydroxycoumarin-4-acetic acid] | 82% | very weak substrates | –
O=C(O)c1cc2ccc(O)cc2oc1=O [V, 7-hydroxycoumarin-3-carboxylic acid] | 97% | very weak substrates | –
